The source of these data is patent US20230234936A1, “COMPOUND FOR TARGETING AND DEGRADING PROTEIN, AND PREPARATION METHOD THEREFOR AND USE THEREOF” (SHANGHAI LEADINGTAC PHARMACEUTICAL CO., LTD., priority 2020, published 2023).

For test [1], the target named is T1, IRAK4 protein in THP-1 cells (Homo sapiens, UniProt Q9NWZ3).
T1 construct: endogenous in cells; host or cells: THP-1
T1 sequence (Q9NWZ3 1-460): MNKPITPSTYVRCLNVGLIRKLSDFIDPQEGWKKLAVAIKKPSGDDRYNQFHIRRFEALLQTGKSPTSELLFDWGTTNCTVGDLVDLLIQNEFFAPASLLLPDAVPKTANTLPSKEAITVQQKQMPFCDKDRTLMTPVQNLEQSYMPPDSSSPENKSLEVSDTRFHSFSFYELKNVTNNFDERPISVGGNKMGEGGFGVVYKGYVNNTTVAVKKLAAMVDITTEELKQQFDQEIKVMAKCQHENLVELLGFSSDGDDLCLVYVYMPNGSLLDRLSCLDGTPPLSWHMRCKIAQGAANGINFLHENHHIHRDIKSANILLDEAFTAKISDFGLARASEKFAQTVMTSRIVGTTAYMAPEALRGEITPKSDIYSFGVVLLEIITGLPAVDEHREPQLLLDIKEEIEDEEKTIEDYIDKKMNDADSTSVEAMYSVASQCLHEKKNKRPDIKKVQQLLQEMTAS
Description: Degradation of IRAK4 in THP-1 cells (Western blot). In kind it is cell-based. The following applies: 24 hours, compound 1-3000 nM. The essentials:
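THP-1 cells (5×10^5/well) treated 24 h with compound at 1–3000 nM final. IRAK4 in lysates quantified by Western blot, normalized to internal reference and compared with control to give degradation rate; DC50 and Dmax from nonlinear fit of log concentration.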

For test [2], the system named is Interleukin-6 (IL-6) in LPS-induced human PBMC. The test can be described thus: Cytokine secretion of LPS-induced human PBMC, IL-6 AlphaLISA detection. Format: cell-based. The following applies: inhibition of IL-6, compound 1 hour or 20 hours, then LPS 100 ng/mL 5 hours. How it is done:
Frozen human PBMC (Milestone, PB010C) was resuspended to RPMI 1640 medium (Gibco, A1049101) after resuscitation, supplemented with 10% fetal bovine serum (Gibco, 10099141), 100 U/mL penicillin and 100 μg/mL streptomycin (Gibco, 15140122). On the same day, 150 μL of PBMC was spread in each well of a 96-well transparent cell plate (Labserv, 310109008), so that the cell density was 2×10^5 cells/well. Then 50 μL diluted compound solution was added to the corresponding cell-covered wells to make the final concentration of the compound in the range of 0.026-10000 nM. The final concentration of DMSO was 0.25%. After the drug-treated cell plate was cultured at 37° C. for 1 hour or 20 hours in a 5% CO2 incubator, 10 μL LPS (0111:B4) (Sigma, L4391) was added with a final concentration of 100 ng/mL. The cell plate was again placed in a 5% CO2 incubator at 37° C. for 5 hours, centrifuged at 2000 rpm for 10 minutes, and 100 μL cell supernatant was taken from each well and transferred to a new 96-well transparent cell plate for cytokine concentration test, which was frozen at −80° C. to be tested.
The concentration of IL-6 in the supernatant of LPS-induced human PBMC cells was determined using interleukin-6 (IL-6) AlphaLISA detection kit (PerkinElmer, AL223 C).
According to the product instructions, IL-6 standard solutions with different concentrations were prepared in the concentration range of […]. 2 μL of IL-6 standard solution at various concentrations and the cell supernatant sample to be tested were taken, respectively added to white 384 well plates (PerkinElmer, 6007299), then a mixed solution of 8 μL of 5× anti-IL-6 receptor beads (final concentration: 10 μg/mL) and biotin-labeled anti-IL-6 antibody (final concentration 1 nM) was added to each well, and incubated at 23° C. for 60 minutes. Finally, 10 μL of 2× streptavidin-labeled donor beads (final concentration: 40 μg/mL) were added to each well and incubated at 23° C. for 30 minutes in the absent of light. After the incubation, the AlphaLISA signal value was determined in the AlphaScreen standard setting mode on the microplate reader EnVision(PerkinElmer, 2105). The standard curve was drawn by the AlphaLISA signal value of each concentration IL-6 standard solution, and then based on the corresponding concentration on the standard curve for the AlphaLISA signal value of the sample to be tested, the IL-6 concentration of each cell lysis supernatant was determined. Compared with the IL-6 concentration of the control group, the inhibition rate of the compound at each concentration was calculated, and then IC50 value of the compound was calculated by fitting the nonlinear curve with the logarithmic concentration-inhibition rate by GraphPad Prism 7.

The target in a further test is T2, IRAK4 kinase (Homo sapiens, UniProt Q9NWZ3).
T2 sequence (Q9NWZ3 1-460): T1 sequence (Q9NWZ3 1-460)
Description: IRAK4 kinase activity test (KinEASE-STK S1 HTRF kit). The settings on record: 2.5 nM kinase, 1 μM biotinylated polypeptide substrate, 7 μM ATP, 37° C. 120 min. In kind it is biochemical. In short, it runs like this: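 Compound in DMSO, serially diluted to 10000–0.038 nM final, incubated with 2.5 nM kinase, 1 μM biotinylated peptide substrate and 7 μM ATP at 37° C for 120 min. Eu-anti-phospho-Ser/Thr antibody plus streptavidin-XL665 stopped the reaction (1 h RT). HTRF 665/620 nm ratio gave % inhibition versus control; IC50 from nonlinear log-concentration fit.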
(In TR-FRET formats the signal depends on donor and acceptor labels being close together.)

Each structure is given as a SMILES string.

Regarding `COc1cc2nn(C3CCN(CCN4CCC5(CC4)CCN(C(=O)c4ccc(OC)c(N6CCC(=O)NC6=O)c4)CC5)CC3)cc2cc1NC(=O)c1cccc(C(F)(F)F)n1` [Example 1, N-(2-(1-(2-(9-(3-(2,4-dioxotetrahydropyrimidin-1 (2H)-yl)-4-methoxybenzoyl)-3,9-diazaspiro[5.5]undec-3-yl)ethyl)piperidin-4-yl)-6-methoxy-2H-indazol-5-yl)-6-(trifluoromethyl)-2-pyridinecarboxamide], in test [1], the DC50 came to 3 nM and the Dmax was determined as 94.6%. The IC50 in test [2] was 4.9 nM. The same compound had an IC50 on IRAK4 kinase of 2.5 nM.
In the same order, the values of `CC(C)(O)c1cc2nn(C3CCN(CCC4CCC5(CC4)CCN(C(=O)c4ccc(Cl)c(N6CCC(=O)NC6=O)c4)CC5)CC3)cc2cc1NC(=O)c1cccc(C(F)(F)F)n1` [Example 28, N-(2-(1-(2-(3-(4-chloro-3-(2,4-dioxotetrahydro-pyrimidin-1 (2H)-yl)benzoyl)-3-azaspiro [5.5]undec-9-yl)ethyl)piperidin-4-yl)-6-(2-hydroxyprop-2-yl)-2H-indazol-5-yl)-6-(trifluoro-methyl) pyridinecarbox-amide] are 0.8 nM, 99.4%, 4.7 nM and 16.2 nM.
For `COc1cc2nn(C3CCN(CC4CCC5(CC4)CCN(C(=O)c4ccc(Cl)c(N6CCC(=O)NC6=O)c4)CC5)CC3)cc2cc1NC(=O)c1cccc(C(F)(F)F)n1` [Example 32] the same measures were 5.1 nM, 96.9%, 9.7 nM and 28.5 nM.
In the same order, the values of `CC(C)(O)c1cc2nn(C3CCN(CC4CCC5(CC4)CCN(C(=O)c4ccc(F)c(C6CCC(=O)NC6=O)c4)CC5)CC3)cc2cc1NC(=O)c1cccc(C(F)(F)F)n1` (stereo not drawn) [Example 41, N-(2-(1-((3-(3-(2,6-dioxopiperidin-3-yl)-4-fluoro-benzoyl)-3-azaspiro [5.5]undec-9-yl)methyl)piperidin-4-yl)-6-(2-hydroxyprop-2-yl)-2H-inda-zol-5-yl)-6-(triflu-oromethyl) pyridinecarbox-amide] are 2.9 nM, 97.7%, 5.1 nM and 28.1 nM.
In test [1], `COc1cc2nn([C@H]3CC[C@H](CN(C)CCC4CCN(C(=O)c5ccc(Cl)c(N6CCC(=O)NC6=O)c5)CC4)CC3)cc2cc1NC(=O)c1cccc(C(F)(F)F)n1` [Example 49, N-(2-((1r,4r)-4-(((2-(1-(4-chloro-3-(2,4-dioxotetrahydro-pyrimidin-1 (2H)-yl)benzoyl)piperidin-4-yl)ethyl) (methyl)amino)methyl)cyclohexyl)-6-methoxy-2H-inda-zol-5-yl)-6-(tri-fluoromethyl) pyridinecarbox-amide] had a DC50 of 1.8 nM. The compound also returned a Dmax in test [1] of 99.2%. Besides, the results for the IC50 (in test [2]; on IRAK4 kinase) were 3.7 nM and 3.4 nM, respectively.
In test [1], `COc1cc2nn([C@H]3CC[C@H](CN(C)C4CCC5(CC4)CCN(C(=O)c4ccc(Cl)c(N6CCC(=O)NC6=O)c4)CC5)CC3)cc2cc1NC(=O)c1cccc(C(F)(F)F)n1` [Example 53, N-(2-((1r,4r)-4-(((3-(4-chloo-3-(2,4-dioxotetrahydro-pyrimidin-1 (2H)-yl)benzoyl)-3-azaspiro [5.5]undec-9-yl) (methyl)amino)methyl)cyclohexyl)-6-methoxy-2H-inda-zol-5-yl)-6-(triflu-oromethyl) pyridinecarbox-amide] came in with a DC50 of 5.9 nM and a Dmax of 96.3%. Moreover, in test [2], 2.8 nM corresponded to half-maximal inhibition (IC50). For the same compound, at IRAK4 kinase, the IC50 came out at 6.3 nM.
In the same order, the values of `COc1cc2nn([C@H]3CC[C@H](CCN4CCC5(CC4)CCN(C(=O)c4ccc(Cl)c(N6CCC(=O)NC6=O)c4)CC5)CC3)cc2cc1NC(=O)c1cccc(C(F)(F)F)n1` [Example 54, N-(2-((1r,4r)-4-(2-(9-(4-chloro-3-(2,4-dioxo-tetrahydropyrim-idin-1 (2H)-yl)benzoyl)-3,9-diazaspiro[5.5]undec-3-yl)ethyl)cyclohexyl)-6-methoxy-2H-inda-zol-5-yl)-6-(tri-fluoromethyl) pyridinecarbox-amide] are 1.4 nM, 98.9%, 2.6 nM and 7.5 nM.
In the same order, the values of `CN(CCC1CCN(C(=O)c2ccc(Cl)c(N3CCC(=O)NC3=O)c2)CC1)C[C@H]1CC[C@H](n2cc3cc(NC(=O)c4cccc(C(F)(F)F)n4)c(C(C)(C)O)cc3n2)CC1` [Example 55, N-(2-((1r,4r)-4-(((2-(1-(4-chloro-3-(2,4-dioxotetrahydro-pyrimidin-1 (2H)-yl)benzoyl)piperidin-4-yl)ethyl) (methyl)amino)methyl)cyclohexyl)-6-(2-hydroxyprop-2-yl)-2H-indazol-5-yl)-6-(trifluoro-methyl) pyridinecarbox-amide] are 2.7 nM, 98.1%, 0.8 nM and 10.6 nM.
In test [1], `COc1cc2nn([C@H]3CC[C@H](N(C)C4CCC5(CC4)CCN(C(=O)c4ccc(Cl)c(N6CCC(=O)NC6=O)c4)CC5)CC3)cc2cc1NC(=O)c1cccc(C(F)(F)F)n1` [Example 56] registered a DC50 of 3 nM and a Dmax of 97%. This compound also had an IC50 in test [2] of 3.2 nM. At IRAK4 kinase, this compound returned an IC50 of 3.6 nM.

As a reminder, the DC50 is the concentration at which degradation of the target reaches its halfway point. Read a high DC50 as degradation only at high concentration. A word on the Dmax: it is the greatest extent of degradation seen. Read a high Dmax as a fuller loss of target. One may read the IC50 as the concentration that inhibits the measured activity by half. Lower therefore signals inhibition by little substance.
